Results taken from paper PMC5459853, “Cathepsin S inhibition combines control of systemic and peripheral pathomechanisms of autoimmune tissue injury” (Scientific Reports, 2017).

Target: Human Cat-S (Homo sapiens, UniProt P25774)
Assay: Tight-binding kinetic analysis, Z-Phe-Arg-AMC hydrolysis, Morrison equation
Type: biochemical
Conditions: 10 µM Z-Phe-Arg-AMC (= KM), 10 nM Cat-S, pH 6
Method: RO5459072 was provided by F. Hoffmann-La Roche, Ltd., Basel, Switzerland. It is a competitive inhibitor of the active site of Cat-S and its nitrile function allows covalent reversible inhibition of Cat-S. The synthesis of RO5459072 has been described in WO 2010121918 and WO 2013068434. Recombinant cathepsins were produced in-house or were purchased from commercial vendors. Initial enzymatic assays to determine isoform-selectivity in vitro were performed as previously described, [23]. […] For this the Cat-S-dependent hydrolysis of the fluorogenic substrate Z-Phe-Arg-AMC (Sigma Aldrich) was followed at various inhibitor concentrations. The active fraction of Cat-S was detemined as 70% with a HPLC assay measuring modification of Cat-S with the covalent inhibitor LHVS. […] All kinetic measurements were performad on a SFM-3000 stopped-flow instrument (Bio-Logic Science Instruments) and data were analyzed with GraphPad Prism v5. […]
active Cat-S converged to [E]0 = 6.9 nM). […] (E) Pharmacodynamics of R05459072 was determined in C57Bl6 mice with increasing amounts of compound as single dose. […]
Supplementary figure 3. […] Plasma levels of IgG1 (A), IgG2a (B), and IgG2b (C) were determined by ELISA at different time points from the initiation (week 11) to the end of treatment (week 19). Data are expressed as means ± SEM (n=8 to 10 in […]

Sequence of Human Cat-S (P25774 115-331): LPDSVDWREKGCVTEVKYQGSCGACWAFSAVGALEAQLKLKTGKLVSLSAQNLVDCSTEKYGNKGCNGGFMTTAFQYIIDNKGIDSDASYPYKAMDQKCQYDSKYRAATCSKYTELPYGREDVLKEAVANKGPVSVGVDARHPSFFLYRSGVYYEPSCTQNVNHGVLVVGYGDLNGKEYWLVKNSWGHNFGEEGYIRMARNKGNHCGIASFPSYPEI

Cn1cc(-c2ccc(S(=O)(=O)[C@@H]3C[C@@H](C(=O)NC4(C#N)CC4)N(C(=O)C4(C(F)(F)F)CC4)C3)c(C(F)(F)F)c2)cn1 [RO5459072]
Ki: 0.066 ± 0.025 nM
